Measured values published in paper PMC6881810, “Trichoderma reesei Dehydrogenase, a Pyrroloquinoline Quinone-Dependent Member of Auxiliary Activity Family 12 of the Carbohydrate-Active Enzymes Database: Functional and Structural Characterization” (Applied and Environmental Microbiology, 2019).

Target: T1, TrAA12 (Trichoderma reesei, UniProt G0RPY6)
T1 construct: gene AA12
Experiment: cytochrome c reduction at […] nm, Michaelis-Menten nonlinear fit
Assay type: biochemical
Conditions: 50 uM cytochrome c, 4 uM PQQ, 1 mM CaCl2, 50 mM sodium acetate pH 5.5, 40 C; full cofactor occupancy assumed

T1 sequence (G0RPY6 24-430): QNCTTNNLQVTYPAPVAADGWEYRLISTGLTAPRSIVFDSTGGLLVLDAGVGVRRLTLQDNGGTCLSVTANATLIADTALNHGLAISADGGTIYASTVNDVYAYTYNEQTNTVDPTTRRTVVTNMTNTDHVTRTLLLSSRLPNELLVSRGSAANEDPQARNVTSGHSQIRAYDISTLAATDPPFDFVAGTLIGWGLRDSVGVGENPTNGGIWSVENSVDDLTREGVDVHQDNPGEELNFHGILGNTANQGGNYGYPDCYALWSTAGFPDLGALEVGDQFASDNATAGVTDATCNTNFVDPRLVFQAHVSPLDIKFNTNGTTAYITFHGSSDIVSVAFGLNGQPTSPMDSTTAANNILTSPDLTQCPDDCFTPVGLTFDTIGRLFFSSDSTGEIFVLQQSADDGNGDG

- Km: 99.9 ± 9.7 mM
Compound: C[C@@H]1OC(O)[C@@H](O)[C@H](O)[C@@H]1O (stereo partly drawn) [L-fucose]
